Source: ChEMBL document CHEMBL1136061, “Novel potent antagonists of human neuropeptide Y Y5 receptors. Part 2: substituted benzo[a]cycloheptene derivatives” (Bioorg Med Chem Lett, 2002)
Each block holds one compound with its values, some of them ahead of it.

Columns and labels:
[1] = target: T1, Neuropeptide Y receptor type 5 (Homo sapiens, UniProt Q15761); assay: (§1) Concentration that inhibited 50% of total specific binding of [125I]PYY ligand to human NPY-Y5 receptor
T1 sequence (Q15761 whole entry): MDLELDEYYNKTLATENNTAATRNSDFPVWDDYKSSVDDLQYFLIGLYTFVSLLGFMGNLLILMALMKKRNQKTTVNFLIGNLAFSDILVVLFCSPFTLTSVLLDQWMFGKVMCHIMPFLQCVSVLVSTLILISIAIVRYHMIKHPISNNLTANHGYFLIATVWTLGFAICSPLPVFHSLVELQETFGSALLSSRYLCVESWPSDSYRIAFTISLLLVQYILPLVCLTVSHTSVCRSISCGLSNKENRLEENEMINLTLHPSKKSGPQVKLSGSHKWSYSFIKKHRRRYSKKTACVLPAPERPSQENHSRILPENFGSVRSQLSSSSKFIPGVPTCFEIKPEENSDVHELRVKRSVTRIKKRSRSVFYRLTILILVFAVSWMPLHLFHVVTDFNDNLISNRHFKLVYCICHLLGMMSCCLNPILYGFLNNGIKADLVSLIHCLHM

[2] = target: T2, Neuropeptide Y receptor type 1 (Homo sapiens, UniProt P25929); assay: Concentration that inhibited 50% of total specific binding of [125I]PYY ligand to human NPY-Y1 receptor
T2 sequence (P25929 whole entry): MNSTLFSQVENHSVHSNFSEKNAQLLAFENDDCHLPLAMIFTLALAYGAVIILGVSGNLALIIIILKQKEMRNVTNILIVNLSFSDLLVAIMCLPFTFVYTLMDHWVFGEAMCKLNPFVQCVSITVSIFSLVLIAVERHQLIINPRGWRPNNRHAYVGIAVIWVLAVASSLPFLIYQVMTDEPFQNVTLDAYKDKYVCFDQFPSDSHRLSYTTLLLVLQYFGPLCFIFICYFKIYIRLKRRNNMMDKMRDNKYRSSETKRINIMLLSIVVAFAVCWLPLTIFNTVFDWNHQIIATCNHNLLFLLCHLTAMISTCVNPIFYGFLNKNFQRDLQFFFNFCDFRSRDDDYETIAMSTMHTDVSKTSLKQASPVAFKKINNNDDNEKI

[3] = target: T3, Neuropeptide Y receptor type 5 (Homo sapiens) (UniProt Q15761); assay: as §1
T3 sequence (whole entry): T1 sequence (Q15761 whole entry)

IC50 [1]: 52 nM
SMILES: Nc1ccc2c(c1)CC(NCC1CCN(CCNS(=O)(=O)c3cccc4ccccc34)CC1)CCC2 (stereo not drawn)

IC50 [1]: 310 nM
SMILES: O=S(=O)(NCCN1CC(CNC2CCCc3ccc(Cl)cc3C2)C1)c1cccc2ccccc12 (stereo not drawn)

IC50 [1]: 72 nM
IC50 [2]: 18000 nM
SMILES: Cc1ccc2c(c1)CC(NCC1CCN(CCNS(=O)(=O)c3cccc4ccccc34)CC1)CCC2 (stereo not drawn)

IC50 [1]: 210 nM
SMILES: O=S(=O)(NCCN1CCC(CNC2CCCc3ccccc3C2)CC1)c1cccc2ccccc12 (stereo not drawn)

IC50 [1]: 45 nM
IC50 [2]: 14000 nM
SMILES: COc1ccc2c(c1)CC(NCC1CCN(CCNS(=O)(=O)c3cccc4ccccc34)CC1)CCC2 (stereo not drawn)

IC50 [1]: 79 nM
IC50 [2]: 15000 nM
SMILES: O=[N+]([O-])c1ccc2c(c1)CC(NCC1CCN(CCNS(=O)(=O)c3cccc4ccccc34)CC1)CCC2 (stereo not drawn)

IC50 [1]: 85 nM
IC50 [2]: 8500 nM
SMILES: O=S(=O)(NCCN1CCC(CNC2CCCc3ccc(Cl)cc3C2)CC1)c1cccc2ccccc12 (stereo not drawn)

More lines, now with the values behind:

SMILES: COc1ccc2c(c1)CC(CNCC1CCN(CCNS(=O)(=O)c3cccc4ccccc34)CC1)CCC2 (stereo not drawn)
IC50 [1]: 16 nM
IC50 [2]: 9600 nM

SMILES: COc1ccc2c(c1)CC(NC1CCN(CCNS(=O)(=O)c3cccc4ccccc34)CC1)CCC2 (stereo not drawn)
IC50 [1]: 66 nM
IC50 [2]: 35000 nM

SMILES: COc1ccc2c(c1)CC(CNCC1CN(CCNS(=O)(=O)c3cccc4ccccc34)C1)CCC2 (stereo not drawn)
IC50 [1]: 86 nM
IC50 [2]: 22000 nM

SMILES: COc1ccc2c(c1)CCCC(NCCN1CCC(CNS(=O)(=O)c3cccc4ccccc34)CC1)C2 (stereo not drawn)
IC50 [1]: 1000 nM

SMILES: COc1ccc2c(c1)CC(NCCN1CCC(CNS(=O)(=O)c3cccc4ccccc34)CC1)CCC2 (stereo not drawn)
IC50 [1]: 740 nM
IC50 [2]: 19000 nM

SMILES: O=C(O)COc1ccc2c(c1)CC(NCC1CCN(CCNS(=O)(=O)c3cccc4ccccc34)CC1)CCC2 (stereo not drawn)
inhibition [3]: 25.7%

SMILES: CCOC(=O)COc1ccc2c(c1)CC(NCC1CCN(CCNS(=O)(=O)c3cccc4ccccc34)CC1)CCC2 (stereo not drawn)
IC50 [1]: 680 nM

SMILES: Cc1ccc2c(c1)CC(NCC1CN(CCNS(=O)(=O)c3cccc4ccccc34)C1)CCC2 (stereo not drawn)
IC50 [1]: 190 nM

SMILES: COc1ccc2c(c1)CC(CNC1CCN(CCNS(=O)(=O)c3cccc4ccccc34)CC1)CCC2 (stereo not drawn)
IC50 [1]: 39 nM
IC50 [2]: 29000 nM

SMILES: COc1cccc2c1CCCC(NCCN1CCC(CNS(=O)(=O)c3cccc4ccccc34)CC1)C2 (stereo not drawn)
IC50 [1]: > 1000 nM

SMILES: COc1ccc2c(c1OC)CC(NCC1CN(CCNS(=O)(=O)c3cccc4ccccc34)C1)CCC2 (stereo not drawn)
IC50 [1]: 140 nM

SMILES: O=S(=O)(NC[C@H]1CC[C@@H](CNCC2CCc3ccccc3C2)CC1)c1cccc2ccccc12 (stereo partly drawn)
IC50 [1]: 38 nM
IC50 [2]: 1300 nM

SMILES: COc1cc2c(cc1OC)CC(NCC1CCN(CCNS(=O)(=O)c3cccc4ccccc34)CC1)CCC2 (stereo not drawn)
IC50 [1]: 68 nM
IC50 [2]: 17000 nM

SMILES: COc1ccc2c(c1)CC(CNCCN1CCC(CNS(=O)(=O)c3cccc4ccccc34)CC1)CCC2 (stereo not drawn)
IC50 [1]: 540 nM
IC50 [2]: 2800 nM
